Measurements published in the supplement of paper PMC12463676, “Small-molecule dissolution of stress granules by redox modulation benefits ALS models” (Nature Chemical Biology, 2025).

Experiments:
[1] = compound: O=[As]([O-])(O)O.[K+] [potassium arsenate]; experiment: thermal stability z-score vs DMSO; higher = more thermally stabilized by treatment; conditions: HeLa; arsenate concentration 1 mM
Experimental: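 Cellular thermal proteome profiling in HeLa cells treated with 1 mM arsenate for 1 h (DMSO pretreatment), heated to ten temperatures (37-66.3 °C). Soluble protein was quantified by TMT mass spectrometry relative to DMSO controls; the thermal stability score was transformed to a z-score; mean of n = 3 experiments.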

[2] = compound: NC(=O)CCCCC1CCSS1 [lipoamide]; experiment: as above; conditions: HeLa, lipoamide concentration 100 µM
Experimental: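 Cellular thermal proteome profiling in HeLa cells. Cells were treated with 100 µM lipoamide for 1 h, with or without 1 mM arsenate for a further 1 h, then heated to ten temperatures (37-66.3 °C), and soluble protein was quantified by TMT mass spectrometry relative to 0.1% DMSO controls. The thermal stability score (sum of log2 fold changes minus the abundance score) was transformed to a z-score; mean of n = 3 experiments.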

[3] = arsenate co-treatment: 1 mM arsenate 1 h
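Also: each temperature applied for 3 min, abundance score taken as mean log2 fold change at the two lowest temperatures, z-score obtained by mean subtraction and division by SD.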

Sequence of UniProt P23919 (P23919 whole entry): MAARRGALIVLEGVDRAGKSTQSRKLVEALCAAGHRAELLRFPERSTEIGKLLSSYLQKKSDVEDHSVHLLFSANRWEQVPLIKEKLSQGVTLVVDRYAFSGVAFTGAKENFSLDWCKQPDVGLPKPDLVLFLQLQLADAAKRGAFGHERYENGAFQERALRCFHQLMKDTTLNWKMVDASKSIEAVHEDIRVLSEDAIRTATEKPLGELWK
Sequence of UniProt O95372 (O95372 whole entry): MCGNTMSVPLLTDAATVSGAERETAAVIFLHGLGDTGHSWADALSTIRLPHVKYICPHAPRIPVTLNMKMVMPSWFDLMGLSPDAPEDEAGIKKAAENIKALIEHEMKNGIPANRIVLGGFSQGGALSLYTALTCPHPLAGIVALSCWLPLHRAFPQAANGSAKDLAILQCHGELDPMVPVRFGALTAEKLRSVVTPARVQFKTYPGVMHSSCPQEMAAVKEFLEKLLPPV
Sequence of UniProt Q9UP95 (Q9UP95 whole entry): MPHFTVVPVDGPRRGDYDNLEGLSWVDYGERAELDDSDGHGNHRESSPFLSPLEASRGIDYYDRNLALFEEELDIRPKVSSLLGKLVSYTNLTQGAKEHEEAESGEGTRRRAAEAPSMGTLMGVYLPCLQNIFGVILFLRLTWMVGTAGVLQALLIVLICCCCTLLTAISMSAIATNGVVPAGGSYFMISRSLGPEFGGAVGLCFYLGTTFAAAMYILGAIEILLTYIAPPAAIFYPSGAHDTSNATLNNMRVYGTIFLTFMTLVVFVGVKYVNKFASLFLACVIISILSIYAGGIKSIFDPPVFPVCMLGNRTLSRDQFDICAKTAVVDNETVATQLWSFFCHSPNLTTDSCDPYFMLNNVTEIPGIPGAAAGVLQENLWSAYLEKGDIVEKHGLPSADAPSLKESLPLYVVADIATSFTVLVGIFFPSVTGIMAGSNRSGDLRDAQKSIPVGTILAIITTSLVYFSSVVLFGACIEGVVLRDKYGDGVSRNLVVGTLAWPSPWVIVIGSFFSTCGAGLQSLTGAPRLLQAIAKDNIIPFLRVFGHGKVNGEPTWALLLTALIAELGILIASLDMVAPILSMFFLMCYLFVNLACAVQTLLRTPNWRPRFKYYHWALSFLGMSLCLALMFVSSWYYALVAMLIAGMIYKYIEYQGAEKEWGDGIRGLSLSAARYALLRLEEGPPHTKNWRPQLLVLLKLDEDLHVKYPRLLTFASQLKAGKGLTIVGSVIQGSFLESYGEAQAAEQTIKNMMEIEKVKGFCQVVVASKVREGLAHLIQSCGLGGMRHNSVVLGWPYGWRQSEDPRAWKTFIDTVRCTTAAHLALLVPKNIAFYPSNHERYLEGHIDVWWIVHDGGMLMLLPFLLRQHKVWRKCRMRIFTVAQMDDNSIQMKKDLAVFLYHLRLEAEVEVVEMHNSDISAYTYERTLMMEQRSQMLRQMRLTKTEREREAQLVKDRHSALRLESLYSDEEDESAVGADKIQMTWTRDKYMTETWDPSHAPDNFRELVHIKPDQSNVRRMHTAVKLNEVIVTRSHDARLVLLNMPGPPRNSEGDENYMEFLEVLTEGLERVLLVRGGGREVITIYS
Sequence of UniProt Q8IYI6 (Q8IYI6 whole entry): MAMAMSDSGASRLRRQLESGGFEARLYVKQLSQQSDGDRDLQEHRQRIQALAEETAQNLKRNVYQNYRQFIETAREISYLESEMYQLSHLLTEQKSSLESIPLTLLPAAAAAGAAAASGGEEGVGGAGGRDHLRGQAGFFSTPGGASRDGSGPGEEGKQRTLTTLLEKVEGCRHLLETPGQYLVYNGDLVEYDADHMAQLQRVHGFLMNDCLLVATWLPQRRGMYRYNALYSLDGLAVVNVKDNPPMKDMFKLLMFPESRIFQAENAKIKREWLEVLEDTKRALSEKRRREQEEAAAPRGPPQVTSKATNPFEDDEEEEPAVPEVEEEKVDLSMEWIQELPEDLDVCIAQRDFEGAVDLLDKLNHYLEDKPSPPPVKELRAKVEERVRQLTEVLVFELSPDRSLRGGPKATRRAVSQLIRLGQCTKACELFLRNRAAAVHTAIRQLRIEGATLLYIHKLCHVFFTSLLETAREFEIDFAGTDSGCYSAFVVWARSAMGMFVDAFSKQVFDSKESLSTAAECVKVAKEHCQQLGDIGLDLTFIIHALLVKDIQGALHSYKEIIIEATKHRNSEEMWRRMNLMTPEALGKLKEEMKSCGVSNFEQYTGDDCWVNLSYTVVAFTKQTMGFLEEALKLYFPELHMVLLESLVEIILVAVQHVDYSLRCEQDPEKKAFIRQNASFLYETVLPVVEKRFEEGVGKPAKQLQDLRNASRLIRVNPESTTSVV
Sequence of UniProt Q9H0J9 (Q9H0J9 whole entry): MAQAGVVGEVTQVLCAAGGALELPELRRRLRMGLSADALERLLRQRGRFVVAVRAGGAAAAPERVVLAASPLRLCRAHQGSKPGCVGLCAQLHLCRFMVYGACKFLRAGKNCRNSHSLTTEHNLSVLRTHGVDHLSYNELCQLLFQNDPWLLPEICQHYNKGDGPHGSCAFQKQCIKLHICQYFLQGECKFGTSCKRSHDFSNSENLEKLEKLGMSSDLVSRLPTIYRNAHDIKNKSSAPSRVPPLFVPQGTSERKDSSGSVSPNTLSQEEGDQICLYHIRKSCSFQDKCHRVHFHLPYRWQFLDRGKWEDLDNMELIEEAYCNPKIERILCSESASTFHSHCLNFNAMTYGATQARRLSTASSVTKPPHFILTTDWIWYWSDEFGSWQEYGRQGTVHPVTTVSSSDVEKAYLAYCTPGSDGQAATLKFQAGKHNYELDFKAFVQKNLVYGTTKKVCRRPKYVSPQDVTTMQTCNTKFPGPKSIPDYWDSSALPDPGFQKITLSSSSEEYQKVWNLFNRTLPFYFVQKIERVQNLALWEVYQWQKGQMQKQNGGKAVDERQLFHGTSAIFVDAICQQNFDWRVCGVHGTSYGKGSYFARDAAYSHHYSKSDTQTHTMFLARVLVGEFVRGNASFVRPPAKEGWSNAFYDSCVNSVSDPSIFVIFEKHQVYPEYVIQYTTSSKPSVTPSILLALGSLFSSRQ
Sequence of UniProt O60508 (O60508 whole entry): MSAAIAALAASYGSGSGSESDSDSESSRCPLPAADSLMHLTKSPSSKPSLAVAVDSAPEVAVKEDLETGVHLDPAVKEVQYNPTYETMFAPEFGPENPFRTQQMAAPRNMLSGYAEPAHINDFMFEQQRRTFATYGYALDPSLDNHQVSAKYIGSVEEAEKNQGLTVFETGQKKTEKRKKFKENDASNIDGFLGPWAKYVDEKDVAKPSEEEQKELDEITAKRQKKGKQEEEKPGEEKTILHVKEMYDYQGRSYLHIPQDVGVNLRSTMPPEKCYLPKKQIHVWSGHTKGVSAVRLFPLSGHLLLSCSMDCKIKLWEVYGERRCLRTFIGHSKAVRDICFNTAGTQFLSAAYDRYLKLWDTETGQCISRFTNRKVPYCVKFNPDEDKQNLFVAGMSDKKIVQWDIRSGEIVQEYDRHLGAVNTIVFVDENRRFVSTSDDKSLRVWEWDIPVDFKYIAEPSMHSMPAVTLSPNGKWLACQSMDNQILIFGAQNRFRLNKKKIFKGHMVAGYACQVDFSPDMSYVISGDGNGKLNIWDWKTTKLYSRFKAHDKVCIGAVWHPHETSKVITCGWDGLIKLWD
Sequence of UniProt Q9UKB3 (Q9UKB3 whole entry, looked up): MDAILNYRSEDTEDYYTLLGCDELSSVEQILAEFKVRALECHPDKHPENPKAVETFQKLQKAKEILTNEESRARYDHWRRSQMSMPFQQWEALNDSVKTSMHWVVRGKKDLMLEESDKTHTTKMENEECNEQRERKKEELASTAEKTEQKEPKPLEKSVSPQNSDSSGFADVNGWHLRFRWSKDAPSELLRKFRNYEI
Sequence of UniProt P53396 (P53396 whole entry): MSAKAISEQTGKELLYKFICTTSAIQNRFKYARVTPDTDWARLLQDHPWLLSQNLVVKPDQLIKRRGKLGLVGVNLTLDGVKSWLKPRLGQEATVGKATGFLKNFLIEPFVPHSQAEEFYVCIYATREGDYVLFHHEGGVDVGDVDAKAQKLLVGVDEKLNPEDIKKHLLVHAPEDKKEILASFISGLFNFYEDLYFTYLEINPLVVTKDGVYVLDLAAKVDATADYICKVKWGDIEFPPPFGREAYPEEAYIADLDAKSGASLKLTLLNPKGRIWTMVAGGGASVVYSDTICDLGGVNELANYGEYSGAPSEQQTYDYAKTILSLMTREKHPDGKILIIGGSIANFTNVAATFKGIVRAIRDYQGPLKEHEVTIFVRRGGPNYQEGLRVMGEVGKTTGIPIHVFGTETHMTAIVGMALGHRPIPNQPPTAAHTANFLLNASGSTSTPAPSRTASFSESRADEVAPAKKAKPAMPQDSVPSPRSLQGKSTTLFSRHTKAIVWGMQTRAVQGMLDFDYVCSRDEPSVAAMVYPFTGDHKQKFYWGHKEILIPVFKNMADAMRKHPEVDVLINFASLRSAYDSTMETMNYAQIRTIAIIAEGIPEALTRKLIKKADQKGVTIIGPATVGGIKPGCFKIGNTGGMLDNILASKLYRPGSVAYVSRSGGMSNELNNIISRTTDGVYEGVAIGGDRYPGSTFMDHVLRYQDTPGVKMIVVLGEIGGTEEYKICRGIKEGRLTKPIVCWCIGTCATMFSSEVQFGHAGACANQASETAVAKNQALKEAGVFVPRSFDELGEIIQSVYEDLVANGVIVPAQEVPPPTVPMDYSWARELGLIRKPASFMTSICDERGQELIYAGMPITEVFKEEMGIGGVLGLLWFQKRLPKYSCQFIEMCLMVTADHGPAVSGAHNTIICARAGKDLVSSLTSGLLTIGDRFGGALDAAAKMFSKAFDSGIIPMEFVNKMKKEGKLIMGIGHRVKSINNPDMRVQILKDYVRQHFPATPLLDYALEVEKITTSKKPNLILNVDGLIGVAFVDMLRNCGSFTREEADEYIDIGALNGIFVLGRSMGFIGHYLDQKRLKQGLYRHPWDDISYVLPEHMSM

Row | Target | thermal stability z-score [1] | thermal stability z-score [2, 3] | thermal stability z-score ([2]; arsenate co-treatment: none)
1 | ERMP1 (UniProt Q7Z2K6) | 0.227 | 0.0556 | -0.119
2 | DSTYK (UniProt Q6XUX3) | -0.117 | 0.0406 | -0.378
3 | SEC13 (UniProt P55735) | 0.729 | 0.378 | 0.46
4 | MRPS2 (UniProt Q9Y399) | 0.591 | 0.15 | 0.188
5 | TNFAIP3 (UniProt P21580) | -0.522 | -0.409 | -0.303
6 | BCR (UniProt P11274) | 0.0296 | -0.0665 | -0.0479
7 | TAPT1 (UniProt Q6NXT6) | -0.606 | 0.869 | 0.562
8 | DNAJC12 (UniProt Q9UKB3) | -0.108 | -0.279 | -0.182
9 | RIC8B (UniProt Q9NVN3) | -0.00195 | -1.09 | -0.233
10 | ALDH18A1 (UniProt P54886) | -1.34 | -0.0576 | 0.0663
11 | UBE2Z (UniProt Q9H832) | -0.55 | -0.25 | -0.264
12 | PARS2 (UniProt Q7L3T8) | -0.314 | -0.928 | -0.492
13 | WDR53 (UniProt Q7Z5U6) | 1.07 | 0.164 | 0.989
14 | TGIF1 (UniProt Q15583) | -0.203 | -0.557 | -0.274
15 | LYPLA2 (UniProt O95372) | 0.209 | 0.141 | 0.194
16 | TPRA1 (UniProt Q86W33) | 0.19 | -0.68 | -0.251
17 | PDXDC1 (UniProt Q6P996) | 0.73 | -0.964 | -0.497
18 | PYCRL (UniProt Q53H96) | 0.43 | 0.827 | 0.862
19 | DTYMK (UniProt P23919) | -1.22 | -0.383 | 0.537
20 | CTSD (UniProt P07339) | -0.598 | 0.0179 | -0.0567
21 | DHX30 (UniProt Q7L2E3) | -0.391 | -0.306 | 0.192
22 | HABP4 (UniProt Q5JVS0) | -0.0745 | 0.171 | -0.0888
23 | PARP12 (UniProt Q9H0J9) | -0.282 | 0.0419 | -0.00139
24 | ACLY (UniProt P53396) | -0.944 | 0.0389 | -0.136
25 | CDC40 (UniProt O60508) | 0.0978 | -0.117 | 0.182
26 | SLC12A4 (UniProt Q9UP95) | -0.606 | -0.481 | -1.18
27 | EXOC8 (UniProt Q8IYI6) | -0.106 | -0.0845 | 0.0172
28 | GCLC (UniProt P48506) | 1.56 | 0.874 | 0.402
29 | TMEM41B (UniProt Q5BJD5) | -0.153 | 0.259 | 0.188
30 | DNAJC9 (UniProt Q8WXX5) | -2.09 | 0.604 | 0.566
